Laboratory results published in PMC6150295, “Synthesis and Biological Evaluation of 2H-Indazole Derivatives: Towards Antimicrobial and Anti-Inflammatory Dual Agents” (Molecules : A Journal of Synthetic Chemistry and Natural …, 2017).
Read-outs that look alike come from different tables or passages of the source.

Assays:
[1] = test system: Entamoeba histolytica strain HM1-IMSS; assay: In vitro antiprotozoal assay (trophozoite subculture method); type: cell-based; settings: for IC50: Entamoeba histolytica, read-out: IC50 (µM) E. histolytica; for improvement in potency against E. histolytica relative to the analog: 17 compared with 8, 20 compared to 13, 26 compared to 21
Experimental: (§1) The in vitro antiprotozoal assays against E. histolytica, G. intestinalis, and T. vaginalis of the 2-phenyl-2H-indazole and 2,3-diphenyl-2H-indazole derivatives were carried out following the method previously described. Metronidazole (MTZ) and albendazole (ABZ) were used as reference drugs. […] Similarly, compound 7, having a phenyl at position 2, has good activity against the three protozoa, ranking third in activity for T. vaginalis and forth against G. intestinalis and E. histolytica. […] These derivatives had groups H, COOCH3, Cl, and SO2CH3 at positions 2 and 3, substituents that induced the best response in 2-phenyl-2H-indazole derivatives. In addition, carboxylic acids 20 and 25 were of interest for comparative purposes with ester derivatives.
(§2) Trichomonas vaginalis strain GT3, Giardia intestinalis isolate IMSS:0981:1, and Entamoeba histolytica strain HM1-IMSS were used. Trophozoites of G. intestinalis were maintained in a TYI-S-33 medium supplemented with 10% calf serum and bovine bile. E. histolytica and T. vaginalis trophozoites were maintained in TYI-S-33 medium supplemented with 10% bovine serum. Briefly, 5 × 10^4 trophozoites of G. intestinalis or T. vaginalis, or 6 × 10^3 trophozoites of E. histolytica were incubated for 48 h at 37 °C with different concentrations of the compound to be tested, each added as solutions in DMSO. As a negative control, parasite cultures received an equivalent amount of DMSO only, while albendazole and metronidazole were included as positive controls. At the end of the treatment period, the cells were washed and subcultured for another 48 h in a fresh medium to which no drug was added. […] Experiments were carried out in triplicate and repeated at least twice.

[2] = test system: Giardia intestinalis isolate IMSS:0981:1; assay: as above; type: cell-based; settings: for IC50: Giardia duodenalis, read-out: IC50 (µM) G. intestinalis
Experimental: as §1, §2

[3] = test system: Trichomonas vaginalis strain GT3; assay: as above; type: cell-based; settings: for IC50: Trichomonas vaginalis, read-out: IC50 (µM) T. vaginalis
Experimental: as §1, §2

[4] = test system: Escherichia coli strain EDL933 (EHEC); assay: Disk diffusion susceptibility test; type: cell-based; settings: for Inhibition (positive / none) E. coli 933: 5 mg per disc, 37 °C, 24 h; for zone of inhibition at 5000 µg/disc: Escherichia coli, read-out: Zone of inhibition at 5 mg per disc (mm) E. coli 933
[5] = test system: Escherichia coli strain 042 (EAEC); assay: Disk diffusion susceptibility test; type: cell-based; settings: 5 mg per disc, 37 °C, 24 h
[6] = test system: Salmonella enterica serovar Typhi; assay: Disk diffusion susceptibility test; type: cell-based
Candida albicans = assay: Disk diffusion susceptibility test; type: cell-based; settings: for Inhibition (positive / none) C. albicans: 5 mg per disc, 37 °C, 24 h
Candida glabrata = assay: Disk diffusion susceptibility test; type: cell-based; settings: for Inhibition (positive / none) C. glabrata: 5 mg per disc, 37 °C, 24 h; for zone of inhibition at 5000 µg/disc: Nakaseomyces glabratus, read-out: Zone of inhibition at 5 mg per disc (mm) C. glabrata
[7] = trophozoites, 48 h with compound then 48 h subculture without drug
[8] = GT3, trophozoites, 48 h with compound then 48 h subculture without drug
[9] = 16 relative to 7, 20 compared to 13

Row | SMILES | IC50 [1, 7] [µM] | IC50 [2, 7] [µM] | IC50 [3, 8] [µM] | Inhibition (positive / none) E. coli 933 [4] | Inhibition (positive / none) E. coli 042 [5] | Inhibition (positive / none) S. Typhi ([6]; 5 mg per disc, 37 °C, 24 h) | Inhibition (positive / none) C. albicans (Candida albicans) | Inhibition (positive / none) C. glabrata (Candida glabrata) | melting point [°C] | further results
1 | O=C(O)c1ccc(-c2c3ccccc3nn2-c2ccccc2)cc1 [Compound 25, 4-(2-Phenyl-2H-indazol-3-yl) benzoic acid] | 0.0509 | 0.121 ± 0.009 | 0.24 ± 0.0067 | + | - | - | + | - | 296.2 to 298.2 | zone of inhibition at 5000 µg/disc [4]: 2 mm; zone of inhibition at 5000 µg/disc (Candida albicans; Candida albicans, read-out: Zone of inhibition at 5 mg per disc (mm) C. albicans): 1 mm
2 | CSc1ccc(-c2c3ccccc3nn2-c2ccccc2)cc1 [Compound 24, 3-(4-(Methylthio)phenyl)-2-phenyl-2H-indazole] |  |  |  |  |  |  |  |  | 119.3 to 121.4 | 
3 | C[S+]([O-])c1ccc(-n2cc3ccccc3n2)cc1 (centres unmarked) [Compound 14, 2-(4-(Methylsulfinyl)phenyl)-2H-indazole] | 0.0878 ± 0.0083 | 0.168 ± 0.011 | 0.312 ± 0.011 |  |  |  |  |  | 150.1 to 152.7 | 
4 | CS(=O)(=O)c1ccc(-n2cc3ccccc3n2)cc1 [Compound 15, 2-(4-(Methylsulfonyl)phenyl)-2H-indazole] | 0.136 ± 0.0052 | 0.09 ± 0.0234 | 0.145 ± 0.0026 | - | - | - | - | - | 200.6 to 201.5 | 
5 | CCCSc1ccc2nc(NC(=O)OC)[nH]c2c1 [ABZ, albendazole, reference compound] |  |  |  |  |  |  |  |  |  | IC50 ([1]; 48 h): 56.5 ± 18.8 µM; IC50 ([2]; 48 h): 0.037 ± 0.003 µM; IC50 ([3]; GT3, 48 h): 1.591 ± 0.0113 µM
6 | O=C(O)c1ccc(-n2cc3ccccc3n2)cc1 [Compound 13, 4-(2H-Indazol-2-yl) benzoic acid] | 0.0965 ± 0.0059 | 0.193 ± 0.0119 | 0.327 ± 0.0178 |  |  |  |  |  | 288.3 to 288.5 | 
7 | Oc1ccc(-n2cc3ccccc3n2)cc1 [Compound 12, 4-(2H-Indazol-2-yl) phenol] | 0.0737 ± 0.0101 | 0.119 ± 0.0067 | 0.157 ± 0.0135 |  |  |  |  |  | 179 to 181 | 
8 | O=C(O)c1ccc(-n2nc3ccccc3c2-c2ccccc2)cc1 [Compound 20, 4-(3-Phenyl-2H-indazol-2-yl) benzoic acid] | 0.0445 ± 0.0045 | 0.0795 ± 0.0045 | 0.111 ± 0.018 | + | - | - | - | + | 129.2 to 130.1 | improvement in potency against E. histolytica relative to the analog [1]: two-fold; improvement in potency against G. intestinalis relative to the analog [2, 9]: two-fold; improvement in potency against T. vaginalis relative to the analog [3, 9]: three-fold; zone of inhibition at 5000 µg/disc [4]: 2 mm; zone of inhibition at 5000 µg/disc (Candida glabrata): 2 mm
9 | COC(=O)c1ccc(-n2cc3ccccc3n2)cc1 [Compound 10, Methyl 4-(2H-indazol-2-yl) benzoate] | 0.0218 ± 0.0028 | 0.0634 ± 0.0056 | 0.107 ± 0.0056 | - | - | - | - | - | 185.8 to 186.2 | 
10 | Clc1ccc(-n2cc3ccccc3n2)cc1 [Compound 8, 2-(4-Chlorophenyl)-2H-indazole] | 0.0415 ± 0.0031 | 0.0634 ± 0.0031 | 0.107 ± 0.0031 |  |  |  |  |  | 143 to 145.5 | 
11 | COc1ccc(-n2cc3ccccc3n2)cc1 [Compound 9, 2-(4-Methoxyphenyl)-2H-indazole] | 0.154 ± 0.0158 | 0.205 ± 0.0063 | 0.372 ± 0.0158 |  |  |  |  |  | 133.2 to 135.8 | 
12 | Cc1ncc([N+](=O)[O-])n1CCO [MTZ, Metronidazole, reference compound] | 0.38 ± 0.146 | 1.23 ± 0.125 | 0.236 ± 0.016 |  |  |  |  |  |  | 
13 | CC1(C)S[C@@H]2[C@H](NC(=O)[C@H](N)c3ccccc3)C(=O)N2[C@H]1C(=O)O [Ampicillin, ampicillin, reference compound] |  |  |  |  |  |  |  |  |  | Inhibition (positive / none) S. Typhi ([6]; positive control, ampicillin 25 µg): +
14 | CSc1ccc(-n2cc3ccccc3n2)cc1 [Compound 11, 2-(4-(Methylthio)phenyl)-2H-indazole] | 0.0978 ± 0.0147 | 0.218 ± 0.0088 | 0.273 ± 0.0147 |  |  |  |  |  | 148.3 to 149.7 | 
15 | CSc1ccc(-n2nc3ccccc3c2-c2ccccc2)cc1 [Compound 19, 2-(4-(Methylthio)phenyl)-3-phenyl-2H-indazole] |  |  |  |  |  |  |  |  | 87.7 to 89 | 
16 | Clc1ccc(-c2c3ccccc3nn2-c2ccccc2)cc1 [Compound 22, 3-(4-Chlorophenyl)-2-phenyl-2H-indazole] | 0.0394 | 0.113 ± 0.007 | 0.118 ± 0.0046 | + | - | - | - | + | 141.1 to 142.8 | zone of inhibition at 5000 µg/disc [4]: 1 mm; zone of inhibition at 5000 µg/disc (Candida glabrata): 2 mm
17 | Clc1ccc(-n2nc3ccccc3c2-c2ccccc2)cc1 [Compound 17, 2-(4-Chlorophenyl)-3-phenyl-2H-indazole] | 0.0213 ± 0.0023 | 0.0607 ± 0.0023 | 0.103 ± 0.0023 | + | - | - | - | - | 124.4 to 125 | improvement in potency against E. histolytica relative to the analog [1]: two-fold; zone of inhibition at 5000 µg/disc [4]: 2 mm
